Test results from patent US5618791A, “Memory enhancing peptides” (Shanghai Institute of Biochemistry, priority 1992, dated 1997).
Square brackets hold non-standard residues; d marks the D form. Ends that are not written are not given here. Peptide text beside a SMILES is read from it. pGlu = O=C1CC[C@@H](C(=O)O)N1; Hme = not defined here

How the values were obtained:
adult rats [1] = test: Passive avoidance response of adult rats, step-through one trial learning test in a shuttle box; type: in vivo
Experimental: (§1) Biological activities of MEPs of the invention are confirmed by bioassay. Blood pressure measurements and urine output measurements were performed on adult rats after intravenous administration of MEPs under ether anesthesia. Passive avoidance behavior of adult rats was carried out in a step-through one trial learning test in a shuttle box, and brightness discrimination tests were performed in a radiant Y maze. Rats neonatally administered with MEPs of the invention were trained during an immature period and subsequently tested as adults.
(§2) Memory enhancing responses were assessed by two kinds of behavioral records, i.e., passive avoidance response of adult rats in a shuttle box and the performance in a radiant Y maze in the acquisition and retention of brightness discrimination of rats neonatally administered. The results are set out in Table I. All MEPs of the invention show significant positive behavioral responses when rats have received a subcutaneous administration of MEP within the dosage range 1 ng-1 μg per animal. MEPs of the invention show a memory enhancing potency 10-100 times that of AVP.

adult rats [2] = details: cited from earlier work
rats = test: Brightness discrimination test in a radiant Y maze; type: in vivo, rat; details: adult rats; oral 20 μg/kg/day for 30 days
Experimental: as §1, §2
Additionally, oral administration of NLPR to adult rats at a dose of 20 μg/kg/day for 30 days produced a positive brightness discrimination assay.

Molecule	Passive Avoidance adult rat effective dose (adult rats [1])	acquisition of active or passive avoidance responses (adult rats [2])	extinction of active or passive avoidance responses (adult rats [2])	brightness discrimination assay (rats)
NC(=O)CC[C@@H]1NC(=O)[C@H](Cc2ccccc2)NC(=O)[C@H](Cc2ccc(O)cc2)NC(=O)[C@@H](N)CSSC[C@@H](C(=O)N2CCC[C@H]2C(=O)N[C@@H](CCCN=C(N)N)C(=O)NCC(N)=O)NC(=O)[C@H](CC(N)=O)NC1=O [AVP, arginine vasopressin]	300-1000 ng/200 g body wt.	no effect	retarded	
CC(C)C[C@H](NC(=O)[C@@H](N)CC(N)=O)C(=O)N1CCC[C@H]1C(=O)N[C@@H](CCCNC(=N)N)C(=O)O [NLPR] (H-NLPR-OH)	3-10 ng/200 g body wt.			positive
CC(C)C[C@H](NC(=O)[C@H](CC(N)=O)NC(=O)[C@@H]1CCC(=O)N1)C(=O)N1CCC[C@H]1C(=O)N[C@@H](CCCNC(=N)N)C(=O)O [ZNLPR] ([pGlu]NLPR-OH)	10 ng/200 g body wt.			
CC(=O)N[C@@H](CC(N)=O)C(=O)N[C@@H](CC(C)C)C(=O)N1CCC[C@H]1C(=O)N[C@@H](CCCNC(=N)N)C(N)=O [AcNLPR--NH2] (Ac-NLPR-NH2)	3-10 ng/200 g body wt.			
ZN(Hme)PR: pyroglutamyl-Asn-Hme-Pro-Arg; Hme = Homomethionine (Smethylcysteine) ([pGlu]N[Hme]PR; reading uncertain; also: printed as ZN(Hme)PR)	10-100 ng/200 g body wt.			
